From patent US20070054916A1, “Aryl nitrogen-containing bicyclic compounds and methods of use” (Amgen Inc., priority 2004, published 2007)

Test system: production of TNF by monocytes activated with bacterial lipopolysaccharide (LPS)
Experiment: Lipopolysaccharide-activated monocyte TNF production assay
Assay type: cell-based
Details: Homo sapiens, read-out: IC50 values in the monocyte assay (LPS induced TNF release)
Procedure: Lipopolysaccharide-Activated Monocyte TNF Production Assay
Test compounds were evaluated in vitro for the ability to inhibit the production of TNF by monocytes activated with bacterial lipopolysaccharide (LPS). Fresh residual source leukocytes (a byproduct of plateletpheresis) were obtained from a local blood bank, and peripheral blood mononuclear cells (PBMCs) were isolated by density gradient centrifugation on Ficol-Paque Plus (Pharmacia). PBMCs were suspended at 2×10^6/ml in DMEM supplemented to contain 2% FCS, 10 mM, 0.3 mg/ml […], 100 U/ml penicillin G and […] streptomycin sulfate (complete media). Cells were plated into Falcon flat bottom, 96 well culture plates (200 μl/well) and cultured overnight at 37° C. and 6% CO2. Non-adherent cells were removed by washing with 200 μl/well of fresh medium. Wells containing adherent cells (˜70% monocytes) were replenished with 100 μl of fresh medium.
Preparation of Test Compound Stock Solutions
Test compounds were dissolved in […]. Compound stock solutions were prepared to an initial concentration of […]. Stocks were diluted initially to 20-200 μM in complete media. Nine two-fold serial dilutions of each compound were then prepared in complete medium.
Treatment of Cells with Test Compounds and Activation of TNF Production with Lipopolysaccharide
One hundred microliters of each test compound dilution were added to microtiter wells containing adherent monocytes and 100 μl complete medium. Monocytes were cultured with test compounds for 60 min at which time 25 μl of complete medium containing 30 ng/ml lipopolysaccharide from E. coli K532 were added to each well. Cells were cultured an additional 4 hrs. Culture supernatants were then removed and TNF presence in the supernatants was quantified using an ELISA.
Flat bottom, 96 well Corning High Binding ELISA plates were coated overnight (4° C.) with 150 μL/well of 3 μg/ml murine anti-human TNF-α MAb (R&D Systems #MAB210). Wells were then blocked for 1 hr at room temperature with 200 μL/well of CaCl2-free ELISA buffer supplemented to contain 20 mg/ml BSA (standard ELISA buffer: […], 150 mM NaCl, 2 mM CaCl2, 0.15 mM thimerosal, pH 7.4). Plates were washed and replenished with 100 μl of test supernatants (diluted 1:3) or standards. Standards consisted of eleven 1.5-fold serial dilutions from a stock of 1 ng/ml recombinant human TNF (R&D Systems). Plates were incubated at room temperature for 1 hr on orbital shaker (300 rpm), washed and replenished with 100 μl/well of 0.5 ug/ml goat anti-human TNF-α (R&D systems #AB-210-NA) biotinylated at a 4:1 ratio. Plates were incubated for 40 min, washed and replenished with 100 μl/well of alkaline phosphatase-conjugated streptavidin (Jackson ImmunoResearch #016-050-084) at 0.02 ug/ml. Plates were incubated 30 min, washed and replenished with 200 μl/well of 1 mg/ml of p-nitrophenyl phosphate. After 30 min, plates were read at 405 nm on a Vmax plate reader.
Standard curve data were fit to a second order polynomial and unknown TNF-α concentrations determined from their OD by solving this equation for concentration. TNF concentrations were then plotted vs. test compound concentration using a second order polynomial. This equation was then used to calculate the concentration of test compounds causing a 50% reduction in TNF production.

Row | SMILES | IC50 [µM]
1 | COc1ccc(C(F)(F)F)cc1NC(=O)c1ccc(C)c(-c2ccc3nc(N)ncc3c2)c1 [Example 41, 3-(2-amino-6-quinazolinyl)-4-methyl-N-(2-(methyloxy)-5-(trifluoromethyl)phenyl)benzamide] | ≤ 25
2 | O=C(Nc1cccc(C(F)(F)F)c1)c1cccc(-c2ccc3ccnc(O)c3c2)c1 [Example 51, 3-(1-hydroxy-7-isoquinolinyl)-N-(3-(trifluoromethyl)phenyl)benzamide] | ≤ 25
3 | Nc1ncc2cc(-c3cccc(C(=O)Nc4cccc(C(F)(F)F)c4)c3)ccc2n1 [Example 52, 3-(2-amino-6-quinazolinyl)-N-(3-(trifluoromethyl)phenyl)benzamide] | ≤ 25
4 | CNc1ncc2cc(-c3cccc(C(=O)Nc4cccc(C(F)(F)F)c4)c3)ccc2n1 [Example 53, 3-(2-(methylamino)-6-quinazolinyl)-N-(3-(trifluoromethyl)phenyl)benzamide] | ≤ 25
5 | Nc1ncc2cc(-c3cccc(C(=O)Nc4cc(C(F)(F)F)ccc4N4CCCCC4)c3)ccc2n1 [Example 54, 3-(2-amino-6-quinazolinyl)-N-(2-(1-piperidinyl)-5-(trifluoromethyl)phenyl)benzamide] | ≤ 25
6 | CN(C)CCOc1ccc(-c2ccc3nc(N)ncc3c2)cc1C(=O)Nc1cccc(C(F)(F)F)c1 [Example 57, 5-(2-amino-6-quinazolinyl)-2-((2-(dimethylamino)ethyl)oxy)-N-(3-(trifluoromethyl)phenyl)benzamide] | ≤ 25
7 | CN1CCC(c2cc(NC(=O)c3csc(-c4ccc5nc(N)ncc5c4)c3)cc(C(F)(F)F)c2)CC1 [Example 58, 5-(2-amino-6-quinazolinyl)-N-(3-(1-methyl-4-piperidinyl)-5-(trifluoromethyl)phenyl)-3-thiophenecarboxamide] | ≤ 25
8 | CN(C)CCCN(C)c1c(Cl)cc(C(F)(F)F)cc1NC(=O)c1cc(-c2ccc3nc(N)ncc3c2)ccc1F [Example 59, 5-(2-amino-6-quinazolinyl)-N-(3-chloro-2-((3-(dimethylamino)propyl)(methyl)amino)-5-(trifluoromethyl)phenyl)-2-fluorobenzamide] | ≤ 25
9 | Cc1ccc(NC(=O)c2ccc(C)c(-c3ccc4nc(N)ncc4c3)c2)cc1NC(=O)CN1CCOCC1 [Example 62, 3-(2-amino-6-quinazolinyl)-4-methyl-N-(4-methyl-3-((4-morpholinylacetyl)amino)phenyl) benzamide] | ≤ 25
10 | CCN(CC)CC(=O)Nc1cccc(NC(=O)c2ccc(C)c(-c3ccc4nc(N)ncc4c3)c2)c1C [Example 63, 3-(2-amino-6-quinazolinyl)-N-(3-((N,N-diethylglycyl)amino)-2-methyiphenyl)-4-methylbenzamide] | ≤ 25
11 | CCN(CC)CC(=O)N1CC(C)(C)c2ccc(NC(=O)c3ccc(C)c(-c4ccc5nc(N)ncc5c4)c3)cc21 [Example 64, 3-(2-amino-6-quinazolinyl)-N-(1-(N,N-diethyiglycyl)-3,3-dimethyl-2,3-dihydro-1H-indol-6-yl)-4-methylbenzamide] | ≤ 25
12 | Cc1ccc(C(=O)Nc2ccc3c(c2)N(C(=O)CN2CCOCC2)CC3(C)C)cc1-c1ccc2nc(N)ncc2c1 [Example 65, 3-(2-amino-6-quinazolinyl)-N-(3,3-dimethyl-1-(4-morpholinytacetyl)-2,3-dihydro-1H-indol-6-yl)-4-methylbenzamide] | ≤ 25
13 | Cc1ccc(C(=O)Nc2ccc(OCCCN(C)C)cc2)cc1-c1ccc2nc(N)ncc2c1 [Example 69, 3-(2-amino-6-quinazolinyl)-N-(4-((3-(dimethylamino)propyl)oxy)phenyl)-4-methylbenzamide] | ≤ 25
14 | CCN(CC)CCOc1ccc(NC(=O)c2ccc(C)c(-c3ccc4nc(N)ncc4c3)c2)c(OC)c1 [Example 70, 3-(2-amino-6-quinazolinyl)-N-(4-((2-(diethylamino)ethyl)oxy)-2-(methyloxy)phenyl)-4-methylbenzamide] | ≤ 25
15 | CCN(CC)CCOc1ccc(OC)c(NC(=O)c2ccc(C)c(-c3ccc4nc(N)ncc4c3)c2)c1 [Example 71, 3-(2-amino-6-quinazolinyl)-N-(5-((2-(diethylamino)ethyl)oxy)-2-(methyloxy)phenyl)-4-methylbenzamide] | ≤ 25
16 | Cc1ccc(C(=O)Nc2cc(C(F)(F)F)ccc2N2CCN(C)CC2)cc1-c1ccc2nc(N)ncc2c1 [Example 74, 3-(2-amino-6-quinazolinyl)-4-methyl-N-(2-(4-methyl-1-piperazinyl)-5-(trifluoromethyl)phenyl)benzamide] | ≤ 25
17 | Cc1ccc(C(=O)Nc2cc(C(F)(F)F)ccc2N2CC[C@@H](N(C)C)C2)cc1-c1ccc2nc(N)ncc2c1 [Example 75, 3-(2-amino-6-quinazolinyl)-N-(2-((3R)-3-(dimethylamino)-1-pyrrolidinyl)-5-(trifluoromethyl)phenyl)-4-methylbenzamide] | ≤ 25
18 | Cc1ccc(C(=O)Nc2cc(C(F)(F)F)ccc2N2CCCCC2)cc1-c1ccc2nc(N)ncc2c1 [Example 76, 3-(2-amino-6-quinazolinyl)-4-methyl-N-(2-(1-piperidinyl)-5-(trifluoromethyl)phenyl)benzamide] | ≤ 25
19 | Cc1ccc(C(=O)Nc2cc(C(F)(F)F)ccc2C(F)(F)F)cc1-c1ccc2nc(N)ncc2c1 [Example 77, 3-(2-amino-6-quinazolinyl)-N-(2,5-bis(trifluoromethyl)phenyl)-4-methylbenzamide] | ≤ 25
20 | Cc1ccc(C(=O)Nc2cc(C(C)(C)C)ccc2C(C)(C)C)cc1-c1ccc2nc(N)ncc2c1 [Example 78, 3-(2-amino-6-quinazolinyl)-N-(2,5-bis(1,1-dimethylethyl)phenyl)-4-methylbenzamide] | ≤ 25
21 | Cc1ccc(C(=O)Nc2cc(C(F)(F)F)ccc2N2CCOCC2)cc1-c1ccc2nc(N)ncc2c1 [Example 79, 3-(2-amino-6-quinazolinyl)-4-methyl-N-(2-(4-morpholinyl)-5-(trifluoromethyl)phenyl)benzamide] | ≤ 25
22 | Cc1ccc(C(=O)Nc2cc(C(F)(F)F)ccc2N2CCCC2)cc1-c1ccc2nc(N)ncc2c1 [Example 80, 3-(2-amino-6-quinazolinyl)-4-methyl-N-(2-(1-pyrrolidinyl)-5-(trifluoromethyl)phenyl)benzamide] | ≤ 25
23 | Cc1ccc(C(=O)Nc2cc(C(F)(F)F)ccc2N(C)C)cc1-c1ccc2nc(N)ncc2c1 [Example 81, 3-(2-amino-6-quinazolinyl)-N-(2-(dimethylamino)-5-(trifluoromethyl)phenyl)-4-methylbenzamide] | ≤ 25
24 | Cc1ccc(C(=O)Nc2cc(C(F)(F)F)ccc2C(C)(C)CN(C)C)cc1-c1ccc2nc(N)ncc2c1 [Example 83, 3-(2-amino-6-quinazolinyl)-N-(2-(2-(dimethylamino)-1,1-dimethylethyl)-5-(trifluoromethyl)phenyl)-4-methylbenzamide] | ≤ 25
25 | CN(C)CCCN(C)c1ccc(C(F)(F)F)cc1NC(=O)c1cc(-c2ccc3nc(N)ncc3c2)ccc1F [Example 84, 5-(2-amino-6-quinazolinyl)-N-(2-((3-(dimethylamino)propyl)(methyl)amino)-5-(trifluoromethyl)phenyl)-2-fluorobenzamide] | ≤ 25
26 | Cc1ccc(C(=O)Nc2cc(C(F)(F)F)ccc2N(C)CCCN(C)C)cc1-c1ccc2nc(N)ncc2c1 [Example 114, 3-(2-amino-6-quinazolinyl)-N-(2-((3-(dimethylamino)propyl)(methyl)amino)-5-(trifluoromethyl)phenyl)-4-methylbenzamide] | ≤ 25
